Results from patent publication US20200087248A1, “Fluoroallylamine Derivative And Use Thereof” (SICHUAN KELUN-BIOTECH BIOPHARMACEUTICAL CO., LTD., priority 2017, published 2020).
Counter-ions that a name gives are not always drawn.

Assays:
Assay type in all cases: in vitro ADME
[1] = Stability in liver microsomes, rat
Procedure: (§1) Stability of Liver Microsomes
(§2) Formulation of a compound reservation solution: the test compound, diclofenac acid, testosterone and propafenone were weighted in appropriate amounts, and calibrated by adding about 1 mL of DMSO to provide a 10 mM reservation solution, then stored in a 4° C. refrigerator;
(§3) Formulation of a compound working solution: 10 μL of the reservation solution were added to 990 μL acetonitrile-water (1:1) to provide a middle solution having a concentration of 100 μM, and 120 μL of the middle solution is further diluted with 2880 μL PBS to provide a 4 μM working solution; […]
(§4) After being incubated for a certain period of time, an equivalent volume of cooled acetonitrile (4° C.) was added to terminate the reaction, and LC-MS/MS was used to determine the concentrations of the compound after being incubated in various liver microsomes for different time periods. With the incubation time as the horizontal ordinate and the natural logarithm of the percentages of the remained compound at each time point as the longitudinal coordinate, a diagram was plotted, wherein the slope was the velocity constant (Ke), and the half-life (T1/2) and clearance rate (CLliver) of the compound were calculated according to the following equation to evaluate the staiblity of the compound in the liver microsomes. […]

[2] = Caco-2 permeation experiment; conditions: human
Procedure: (§5) Caco-2 Permeation Experiment
(§6) Culture medium: 10%FBS+1% unnecessary amino acid+90%DMEM (high glucose)
(§7) Permeation solution (pH 7.4): HBSS (Ca^+, Mg^+)+10 mM Hepes
(§8) Compound reservation solution: an amount of the test compound was weighted and added with a certain amount of DMSO to formulate a 10 mM reservation solution.
(§9) Cells were inoculated to Transwell cells in a quantity of 6*10^4/cm^2, and at the A side (top side), were added with 200 μL of the culture medium, and at the B side (base side), were added with 1000 μL of the culture medium. After the inoculation, the solution was replaced once every 2 days, and the culture was conducted for 21 to 28 day.
(§10) After 21 to 28 days since the inoculation of Caco-2 cells, the transmembrane resistance was measured.
(§11) Permeation experiment: after the transepithelial electrical resistance was measured, the buffer solution at the two sides was removed by suction, then added thereto the solution according to the following system.
(§12) According to the experimental conditions as shown in the following Table 15, the reaction solution in each experimental group was formulated: […]
(§13) Sample treatment: after 2-hours incubation, 50 μL of the permeation solution were sucked up from each side of side A and side B, and equivalent volume of cold acetonitrile was added to terminate the reaction, and the concentrations of the compound at the A and B sides were measured by LC-MS/MS. The apparent permeation (Papp) and the Efflux Ratio were calculated according to the following equations:
(§14) Efflux Ratio=Papp(BA)/Papp (AB)
(§15) wherein, dCr/dt is the integration of the concentration of the compound at the base side realted to time, Vr is the reaction volume at the base side, A is the area of a single layer of cells, being 0.33 cm^2, and C0 is the concentration of the compound at the top side.

Caco-2 cells = assay: Caco-2 permeation experiment; conditions: 2 μM
Procedure: as §5, §6, §7, §8, §9, §10, §11, §12, §13, §14, §15

[3] = Stability in liver microsomes, mouse
Procedure: as §1, §2, §3, §4

CC1(C)Cc2cc(OC/C(=C/F)CN)ccc2C(=O)N1 [HC38-E, (E)-6-((2-(aminomethyl)-3-fluoroallyl)oxy)-3,3-dimethyl-3,4-dihydroisoquinolin-1(2H)-one hydrochloride]
T1/2 in liver microsomes ([1]; Rat): long half-life
half-life ([1]; rat, liver microsomes, read-out: T1/2 in liver microsomes): 14.2 h
Papp A→B at 120 min, 2 μM ([2]; Caco-2, 120 min, pH 7.4, read-out: Average apparent permeability A to B): 2.6 ×10⁻⁶ cm/s
Papp B→A at 120 min, 2 μM ([2]; Caco-2, 120 min, pH 7.4, read-out: Average apparent permeability B to A): 3.26 ×10⁻⁶ cm/s
efflux ratio at 2 h, 2 μM ([2]; Caco-2, pH 7.4, Papp(BA)/Papp(AB)): 1.26
Average apparent permeability A to B (Caco-2 cells; 120 min, pH 7.4): high permeability
Efflux ratio (Caco-2 cells; Papp(BA)/Papp(AB)): low possibility of active efflux
T1/2 in liver microsomes ([3]; Mouse): long half-life
half-life ([3]; mouse, liver microsomes, read-out: T1/2 in liver microsomes): 13.8 h
